18 compounds from patent publication US10179771B2 (GALAPAGOS NV, priority 2014, dated 2019) can be followed below.

The target in assay [1] is T1, Recombinant human JAK1 catalytic domain (Homo sapiens, UniProt P23458).
T1 construct: Recombinant human JAK1 (catalytic domain, amino acids 866-1154; catalog number PV4774); purchased Invitrogen PV4774
Briefly: JAK1 inhibition assay (polyGT substrate / Ulight-JAK1 peptide assay). The class given is biochemical. As to the method: Recombinant human JAK1 catalytic domain (amino acids 850-1154; catalog number 08-144) was purchased from Carna Biosciences. 10 ng of JAK1 is incubated with 12.5 μg polyGT substrate (Sigma catalog number P0275) in kinase reaction buffer (15 mM Tris-HCl pH 7.5, 1 mM DTT, 0.01% Tween-20, 10 mM MgCl2, 2 μM non-radioactive ATP, 0.25 ρCi ^33P-gamma-ATP (GE Healthcare, catalog number AH9968) final concentrations) with or without 5 μL containing test compound or vehicle (DMSO, 1% final concentration), in a total volume of 25 μL, in a polypropylene 96-well plate (Greiner, V-bottom). After 45 min at 30° C., reactions are stopped by adding of 25 μL/well of 150 mM phosphoric acid. All of the terminated kinase reaction is transferred to prewashed (75 mM phosphoric acid) 96 well filter plates (Perkin Elmer catalog number 6005177) using a cell harvester (Perkin Elmer). Plates are washed 6 times with 300 μL per well of a 75 mM phosphoric acid solution and the bottom of the plates is sealed. 40 μL/well of Microscint-20 is added, the top of the plates is sealed and readout is performed using the Topcount (Perkin Elmer). Kinase activity is calculated by subtracting counts per min (cpm) obtained in the presence of a positive control inhibitor (10 μM staurosporine) from cpm obtained in the presence of vehicle. The ability of a test compound to inhibit this activity is determined as:
(§1) [formula] • RFU test compound=RFU determined for sample with test compound present • RFU control=RFU determined for sample with positive control inhibitor • RFU vehicle=RFU determined in the presence of vehicle
Dose dilution series are prepared for the compounds enabling the testing of dose-response effects in the JAK1 assay and the calculation of the IC50 for each compound. Each compound is routinely tested at concentration of 20 μM followed by a 1/3 serial dilution, 8 points (20 μM-6.67 μM-2.22 μM-740 nM-247 nM-82 nM-27 nM-9 nM) in a final concentration of 1% DMSO. When potency of compound series increased, more dilutions are prepared and/or the top concentration was lowered (e.g. 5 μM, 1 μM).
Recombinant human JAK1 (catalytic domain, amino acids 866-1154; catalog number PV4774) was purchased from Invitrogen. 1 ng of JAK1 was incubated with 20 nM Ulight-JAK1 (tyr1023) peptide (Perkin Elmer catalog number TRF0121) in kinase reaction buffer (25 mM MOPS pH6.8, 0.01% Brij-35, 5 mM MgCl2, 2 mM DTT, 7 μM ATP) with or without 4 μL containing test compound or vehicle (DMSO, 1% final concentration), in a total volume of 20 μL, in a white 384 Opti plate (Perkin Elmer, catalog number 6007290). After 60 min at room temperature, reactions were stopped by adding 20 μL/well of detection mixture (1× detection buffer (Perkin Elmer, catalog number CR97-100C), 0.5 nM Europium-anti-phosphotyrosine (PT66) (Perkin Elmer, catalog number AD0068), 10 mM EDTA). Readout is performed using the Envision with excitation at 320 nm and measuring emission at 615 nm (Perkin Elmer). Kinase activity was calculated by subtracting relative fluorescence units (RFU) obtained in the presence of a positive control inhibitor (10 μM staurosporine) from RFU obtained in the presence of vehicle. The ability of a test compound to inhibit this activity was determined as: Percentage inhibition=((RFU determined for sample with test compound present−RFU determined for sample with positive control inhibitor) divided by (RFU determined in the presence of vehicle−RFU determined for sample with positive control inhibitor))*100.
Dose dilution series were prepared for the compounds enabling the testing of dose-response effects in the JAK1 assay and the calculation of the IC50 for the compound. Each compound is routinely tested at concentration of 20 μM followed by a 1/5 serial dilution, 10 points in a final concentration of 1% DMSO. When potency of compound series increases, more dilutions are prepared and/or the top concentration are lowered (e.g. 5 μM, 1 μM). […]

Assay [2] deals with T2, Recombinant human JAK3 catalytic domain (Homo sapiens, UniProt P52333).
T2 construct: Recombinant human JAK3 catalytic domain (amino acids 781-1124; catalog number PV3855); purchased Invitrogen PV3855
Briefly: JAK3 inhibition assay. Format: biochemical. On the procedure:
Recombinant human JAK3 catalytic domain (amino acids 781-1124; catalog number PV3855) was purchased from Invitrogen. 0.5 ng JAK3 protein was incubated with 2.5 μg polyGT substrate (Sigma catalog number P0275) in kinase reaction buffer (25 mM Tris pH 7.5, 0.5 mM EGTA, 10 mM MgCl2, 2.5 mM DTT, 0.5 mM Na3VO4, 5 mM b-glycerolphosphate, 0.01% Triton X-100, 1 μM non-radioactive ATP, […] ^33P-gamma-ATP (GE Healthcare, catalog number AH9968) final concentrations) with or without 5 μL containing test compound or vehicle (DMSO, 1% final concentration), in a total volume of 25 μL, in a polypropylene 96-well plate (Greiner, V-bottom). After 45 min at 30° C., reactions were stopped by adding 25 μL/well of 150 mM phosphoric acid. All of the terminated kinase reaction was transferred to prewashed (75 mM phosphoric acid) 96 well filter plates (Perkin Elmer catalog number 6005177) using a cell harvester (Perkin Elmer). Plates were washed 6 times with 300 μL per well of a 75 mM phosphoric acid solution and the bottom of the plates was sealed. 40 μL/well of Microscint-20 was added, the top of the plates was sealed and readout was performed using the Topcount (Perkin Elmer). Kinase activity was calculated by subtracting counts per min (cpm) obtained in the presence of a positive control inhibitor (10 μM staurosporine) from cpm obtained in the presence of vehicle. The ability of a test compound to inhibit this activity was determined as:
as §1
Dose dilution series were prepared for the compounds enabling the testing of dose-response effects in the JAK3 assay and the calculation of the IC50 for each compound. Each compound was routinely tested at concentration of 20 μM followed by a 1/5 serial dilution, 10 points in a final concentration of 1% DMSO. When potency of compound series increased, more dilutions were prepared and/or the top concentration was lowered (e.g. 5 μM, 1 μM).

Where [3] appears, read: Illustrative Compounds of the invention (Table V).
Where [4] appears, read: Illustrative Compounds of the invention (Table IX).

In general, IC50 refers to the concentration at which inhibition is half-maximal.

T2 sequence (P52333 781-1124): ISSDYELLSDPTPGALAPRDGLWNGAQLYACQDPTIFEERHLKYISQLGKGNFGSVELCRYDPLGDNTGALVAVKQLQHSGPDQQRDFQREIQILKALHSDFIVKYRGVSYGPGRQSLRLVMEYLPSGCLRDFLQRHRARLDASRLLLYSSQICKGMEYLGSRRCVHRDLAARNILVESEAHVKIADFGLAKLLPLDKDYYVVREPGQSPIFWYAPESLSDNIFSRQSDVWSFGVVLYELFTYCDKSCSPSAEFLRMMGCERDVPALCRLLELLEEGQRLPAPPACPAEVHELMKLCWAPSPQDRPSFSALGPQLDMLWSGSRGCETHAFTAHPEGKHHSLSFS
T1 sequence (P23458 866-1154): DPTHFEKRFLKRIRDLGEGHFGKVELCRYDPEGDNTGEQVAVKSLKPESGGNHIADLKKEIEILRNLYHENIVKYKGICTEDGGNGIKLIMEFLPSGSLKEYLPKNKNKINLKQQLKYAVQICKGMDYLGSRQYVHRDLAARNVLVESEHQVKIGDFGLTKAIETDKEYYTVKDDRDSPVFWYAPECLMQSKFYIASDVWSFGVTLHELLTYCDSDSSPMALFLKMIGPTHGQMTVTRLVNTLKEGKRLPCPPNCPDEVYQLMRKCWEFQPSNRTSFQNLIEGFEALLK

For `CNC(=O)Nc1cc(Oc2cnc(C#N)cc2C)cc2c1ncn2C`, the half-maximal inhibitory concentration (IC50) in assay [1] (setting [3]) is 0.1 to 50 nM; in assay [2] (setting [4]), 100 to 500 nM.
In the case of `CCc1cc(C#N)cc(F)c1N(C)c1cc(NC(=O)[C@@H]2C[C@@H]2F)c2ncn(C)c2c1` (racemic) [Cpd 7, N-(6-((4-cyano-2-ethyl-6-fluorophenyl)(methyl)amino)-1-methyl-1H-benzo[d]imidazol-4-yl)-2-fluorocyclopropanecarboxamide (1S,2S)/(1R,2R) racemic mixture], the IC50 in assay [1] (setting [3]) and in assay [2] (setting [4]) was 0.1 to 50 nM in each case.
With `CN(c1ccc2ncn(C)c2c1)c1ccc(C#N)cc1F` [C, 3-fluoro-4-[methyl-(3-methylbenzimidazol-5-yl)amino]benzonitrile, reference compound], the IC50 in assay [1] (Comparative Compounds (Table VI)) and in assay [2] (Comparative Compounds (Table X)) was more than 500 nM throughout.
For the compound `CCc1cc(C#N)ncc1N(C)c1cc(NC(=O)C2CC2)c2ncn(C)c2c1` [Cpd 1, N-(6-((6-cyano-4-ethylpyridin-3-yl)(methyl)amino)-1-methyl-1H-benzo[d]imidazol-4-yl)cyclopropanecarboxamide], the half-inhibitory concentration (IC50) in assay [1] (setting [3]) lay within 0.1 to 50 nM; in assay [2] (setting [4]), 50 to 100 nM.
Consider `CCc1cc(C#N)cc(F)c1Nc1cc(NC(=O)C2CC2)c2ncn(C)c2c1` [Cpd 2, N-(6-(4-cyano-2-ethyl-6-fluorophenylamino)-1-methyl-1H-benzo[d]imidazol-4-yl)cyclopropanecarboxamide], for which the IC50 in assay [1] (setting [3]) and in assay [2] (setting [4]) was 0.1 to 50 nM throughout.
Regarding `CCc1cc(C#N)cc(F)c1N(C)c1cc(NC(=O)C2CC2)c2ncn(C)c2c1` [Cpd 3, N-(6-((4-cyano-2-ethyl-6-fluorophenyl)(methyl)amino)-1-methyl-1H-benzo[d]imidazol-4-yl)cyclopropanecarboxamide], the IC50 in assay [1] (setting [3]) and in assay [2] (setting [4]) was 0.1 to 50 nM each time.
In the case of `CCc1cc(C#N)ncc1N(C)c1cc(NC(=O)OC)c2ncn(C)c2c1` [Cpd 4, methyl 6-((6-cyano-4-ethylpyridin-3-yl)(methyl)amino)-1-methyl-1H-benzo[d]imidazol-4-ylcarbamate], the IC50 fell in the range of 0.1 to 50 nM in assay [1] (setting [3]) and 100 to 500 nM in assay [2] (setting [4]).
As to `CCc1cc(C#N)cc(F)c1N(C)c1cc(NC(=O)OC)c2ncn(C)c2c1` [Cpd 5, methyl 6-((4-cyano-2-ethyl-6-fluorophenyl)(methyl)amino)-1-methyl-1H-benzo[d]imidazol-4-ylcarbamate], the half-maximal inhibitory concentration (IC50) in assay [1] (setting [3]) lay within 0.1 to 50 nM; in assay [2] (setting [4]) it was 50 to 100 nM.
As to `CCc1cc(C#N)ncc1Oc1cc(NC(=O)[C@H]2C[C@H]2F)c2ncn(C)c2c1` [Cpd 6, (1R,2R)-N-[6-[(6-cyano-4-ethyl-3-pyridyl)oxy]-1-methyl-benzimidazol-4-yl]-2-fluoro-cyclopropanecarboxamide], the results for the 50% inhibitory concentration (IC50) in assay [1] (setting [3]) and in assay [2] (setting [4]) were 0.1 to 50 nM and more than 500 nM, respectively.
For `CCc1cc(C#N)ncc1N(C)c1cc(NC(=O)[C@H]2C[C@H]2F)c2ncn(C)c2c1` [Cpd 8, (1R,2R)-N-(6-((6-cyano-4-ethylpyridin-3-yl)(methyl)amino)-1-methyl-1H-benzo[d]imidazol-4-yl)-2-fluorocyclopropanecarboxamide], the 50% inhibitory concentration (IC50) was in the range of 0.1 to 50 nM in assay [1] (setting [3]) and 100 to 500 nM in assay [2] (setting [4]).
On the same counts, the results for `Cc1cc(C#N)ncc1N(C)c1cc(NC(=O)[C@H]2C[C@H]2F)c2ncn(C)c2c1` [Cpd 9, (1R,2R)-N-(6-((6-cyano-4-methylpyridin-3-yl)(methyl)amino)-1-methyl-1H-benzo[d]imidazol-4-yl)-2-fluorocyclopropanecarboxamide] are 0.1 to 50 nM and 100 to 500 nM.
On to `CCc1cc(C#N)ccc1Oc1cc(NC(=O)[C@H]2C[C@H]2F)c2ncn(C)c2c1` [Cpd 10, (1R,2R)-N-[6-(4-cyano-2-ethyl-phenoxy)-1-methyl-benzimidazol-4-yl]-2-fluoro-cyclopropanecarboxamide], for which the IC50 in assay [1] (setting [3]) lay in the range of 0.1 to 50 nM; in assay [2] (setting [4]) it was 100 to 500 nM.
On the same counts, the results for `CN(c1cc(NC(=O)[C@H]2C[C@H]2F)c2ncn(C)c2c1)c1c(F)cc(C#N)cc1Cl` [Cpd 11, (1R,2R)-N-[6-(2-chloro-4-cyano-6-fluoro-N-methyl-anilino)-1-methyl-benzimidazol-4-yl]-2-fluoro-cyclopropanecarboxamide] are 0.1 to 50 nM and 100 to 500 nM.
For the compound `Cc1cc(F)ncc1N(C)c1cc(NC(=O)[C@H]2C[C@H]2F)c2ncn(C)c2c1` [Cpd 12, (1R,2R)-2-fluoro-N-[6-[(6-fluoro-4-methyl-3-pyridyl)-methyl-amino]-1-methyl-benzimidazol-4-yl]cyclopropanecarboxamide], the IC50 in assay [1] (setting [3]) fell in the range of 0.1 to 50 nM; in assay [2] (setting [4]), 100 to 500 nM.
Consider `CN(c1cc(NC(=O)[C@H]2C[C@H]2F)c2ncn(C)c2c1)c1ccc(F)nc1F` [Cpd 13, (1R,2R)-N-[6-[(2,6-difluoro-3-pyridyl)-methyl-amino]-1-methyl-benzimidazol-4-yl]-2-fluoro-cyclopropanecarboxamide], for which the figures for the half-inhibitory concentration (IC50) in assay [1] (setting [3]) and in assay [2] (setting [4]) were 50 to 100 nM and more than 500 nM, respectively.
Consider `CN(c1cc(NC(=O)[C@H]2C[C@H]2F)c2ncn(C)c2c1)c1ccc(C#N)nc1F` [Cpd 14, (1R,2R)-N-[6-[(6-cyano-2-fluoro-3-pyridyl)-methyl-amino]-1-methyl-benzimidazol-4-yl]-2-fluoro-cyclopropanecarboxamide], for which the IC50 in assay [1] (setting [3]) was 0.1 to 50 nM; in assay [2] (setting [4]), 100 to 500 nM.
For `CN(c1cc(NC(=O)[C@H]2C[C@H]2F)c2ncn(C)c2c1)c1ccc(C#N)cc1F` [Cpd 15, (1R,2R)-N-[6-(4-cyano-2-fluoro-N-methyl-anilino)-1-methyl-benzimidazol-4-yl]-2-fluoro-cyclopropanecarboxamide], the values for the IC50 in assay [1] (setting [3]) and in assay [2] (setting [4]) were 0.1 to 50 nM and more than 500 nM, respectively.
Regarding `Cc1cc(S(C)(=O)=O)cc(F)c1N(C)c1cc(NC(=O)[C@H]2C[C@H]2F)c2ncn(C)c2c1` [Cpd 16, (1R,2R)-2-fluoro-N-[6-(2-fluoro-N,6-dimethyl-4-methylsulfonyl-anilino)-1-methyl-benzimidazol-4-yl]cyclopropanecarboxamide], the half-inhibitory concentration (IC50) in assay [1] (setting [3]) was 0.1 to 50 nM; in assay [2] (setting [4]) it was 50 to 100 nM.
